Data as given in patent publication US9499550B2 (BRISTOL-MYERS SQUIBB COMPANY, priority 2012, dated 2016).
Read-outs that look alike come from different tables or passages of the source.

Tests used:
[1] = tested on: HCV genotype 1a (H77 strain) replicon in HUH-7 cells; test: HCV replicon luciferase reporter assay, genotype 1a; type: cell-based; conditions: Hepatitis C virus, Huh-7, 72 h, 3 days incubation
How it was run: (§1)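 Replicon inhibition for both genotypes was measured as Renilla luciferase signal (EnduRen, 7.5 μM final, 2 h) after 3-day, 37° C exposure of replicon-bearing HUH-7 cells in 4% FCS DMEM, 0.5% DMSO. The 1b construct carries S1179I; the 1a H77 construct carries P1496L and S2204I. Twenty-point, 3-fold dilutions were fitted four-parametrically for EC50, and CC50 was taken from multiplexed Cell Titer-Blue.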

[2] = tested on: HCV genotype 1b (Con1) replicon in HUH-7 cells; test: HCV replicon luciferase reporter assay, genotype 1b; type: cell-based; conditions: Hepatitis C virus, Huh-7, 72 h, 3 days incubation
How it was run: as §1

[3] = HCV genotype 1a replicon luciferase, read-out: LE_1a (EC50, range)
[4] = HCV genotype 1b replicon luciferase, read-out: LE_1b (EC50, range)
[5] = HCV genotype 1a replicon luciferase, read-out: LE_1a (EC50)
[6] = HCV genotype 1b replicon luciferase, read-out: LE_1b (EC50)
[7] = HCV genotype 1a replicon luciferase assay, range class, read-out: LE_1a (EC50, range)
[8] = HCV genotype 1b replicon luciferase assay, range class, read-out: LE_1b (EC50, range)

Row | SMILES | EC50 [1, 3] [nM] | EC50 [2, 4] [nM] | EC50 [1, 5] [nM] | EC50 [2, 6] [nM] | EC50 [1, 7] [nM] | EC50 [2, 8] [nM]
1 | CC[C@@H]1C[C@H](C)CC/C=C\[C@@H]2C[C@@]2(C(=O)NS(=O)(=O)C2(C)CC2)NC(=O)[C@@H]2C[C@@H](Oc3nnc(OC)c4ccccc34)CN2C(=O)[C@H]1NC(=O)OC(C)(C)C(F)(F)F [Compound 5018, 1,1,1-trifluoro-2-methylpropan-2-yl((2R,6S,7R,9R,13aS,14aR,16aS,Z)-7-ethyl-2-((4-methoxyphthalazin-1-yl)oxy)-9-methyl-14a-(((1-methylcyclopropyl)sulfonyl)carbamoyl)-5,16-dioxo-1,2,3,5,6,7,8,9,10,11,13a,14,14a,15,16,16a-hexadecahydrocyclopropa[e]pyrrolo[1,2-a][1,4]diazacyclopentadecin-6-yl)carbamate] | < 5.46 | < 5.46 | – | – | – | –
2 | C[C@H]1CC/C=C\[C@@H]2C[C@@]2(C(=O)NS(=O)(=O)C2(C)CC2)NC(=O)[C@@H]2C[C@@H](Oc3nccc4c5c(ccc34)OCCO5)CN2C(=O)[C@@H](NC(=O)OCC2(C)CC2)[C@H](C)C1 [Compound 5250, (1-methylcyclopropyl)methyl ((2R,6S,7R,9S,13aS,14aR,16aS,Z)-2-((2,3-dihydro-[1,4]dioxino[2,3-f]isoquinolin-7-yl)oxy)-7,9-dimethyl-14a-(((1-methylcyclopropyl)sulfonyl)carbamoyl)-5,16-dioxo-1,2,3,5,6,7,8,9,10,11,13a,14,14a,15,16,16a-hexadecahydrocyclopropa[e]pyrrolo[1,2-a][1,4]diazacyclopentadecin-6-yl)carbamate] | 4.82 to 103 | 4.82 to 103 | 22.6 | 5.5 | – | –
3 | COc1cc2ccnc(O[C@@H]3C[C@H]4C(=O)N[C@]5(C(=O)NS(=O)(=O)C6(C)CC6)C[C@H]5/C=C\CC[C@@H](C)C[C@@H](C)[C@H](NC(=O)OC(C)(C)C(F)(F)F)C(=O)N4C3)c2cc1OC [Compound 5375, 1,1,1-trifluoro-2-methylpropan-2-yl((2R,6S,7R,9R,13aS,14aR,16aS,Z)-2-((6,7-dimethoxyisoquinolin-1-yl)oxy)-7,9-dimethyl-14a-(((1-methylcyclopropyl)sulfonyl)carbamoyl)-5,16-dioxo-1,2,3,5,6,7,8,9,10,11,13a,14,14a,15,16,16a-hexadecahydrocyclopropa[e]pyrrolo[1,2-a][1,4]diazacyclopentadecin-6-yl)carbamate] | 1.01 to 5 | 0.51 to 1 | – | – | – | –
4 | CCOc1ccc2c(O[C@@H]3C[C@H]4C(=O)N[C@]5(C(=O)NS(=O)(=O)C6CC6)C[C@H]5/C=C\CC[C@@H](C)C[C@@H](CC)[C@H](NC(=O)OC(C)(C)C)C(=O)N4C3)nccc2c1 [Compound 5361, tert-butyl ((2R,6S,7R,9R,13aS,14aR,16aS,Z)-14a-((cyclopropylsulfonyl)carbamoyl)-2-((6-ethoxyisoquinolin-1-yl)oxy)-7-ethyl-9-methyl-5,16-dioxo-1,2,3,5,6,7,8,9,10,11,13a,14,14a,15,16,16a-hexadecahydrocyclopropa[e]pyrrolo[1,2-a][1,4]diazacyclopentadecin-6-yl)carbamate] | 0.51 to 1 | 0.51 to 1 | – | – | – | –
5 | C[C@@H]1CC/C=C\[C@@H]2C[C@@]2(C(=O)NS(=O)(=O)C2CC2)NC(=O)[C@@H]2C[C@@H](Oc3nc(OCC(F)F)cc4c(Cl)cccc34)CN2C(=O)[C@@H](NC(=O)O[C@H](C)C(F)(F)F)[C@H](C)C1 [Compound 1100, (R)-1,1,1-trifluoropropan-2-yl ((2R,6S,7R,9R,13aS,14aR,16aS,Z)-2-((5-chloro-3-(2,2-difluoroethoxyl)isoquinolin-1-yl)oxy)-14a-((cyclopropylsulfonyl)carbamoyl)-7,9-dimethyl-5,16-dioxo-1,2,3,5,6,7,8,9,10,11,13a,14,14a,15,16,16a-hexadecahydrocyclopropa[e]pyrrolo[1,2-a][1,4]diazacyclopentadecin-6-yl)carbamate] | – | – | – | – | < 5.46 | < 5.46
6 | COc1cnc(O[C@@H]2C[C@H]3C(=O)N[C@]4(C(=O)NS(=O)(=O)C5(CF)CC5)C[C@H]4/C=C\CC[C@H](C)C[C@@H](C)[C@H](NC(=O)OC(C)(C)C)C(=O)N3C2)c2ccc(F)cc12 [Compound 3145, tert-butyl ((2R,6S,7R,9S,13aS,14aR,16aS,Z)-2-((6-fluoro-4-methoxyisoquinolin-1-yl)oxy)-14a-(((1-(fluoromethyl)cyclopropyl)sulfonyl)carbamoyl)-7,9-dimethyl-5,16-dioxo-1,2,3,5,6,7,8,9,10,11,13a,14,14a,15,16,16a-hexadecahydrocyclopropa[e]pyrrolo[1,2-a][1,4]diazacyclopentadecin-6-yl)carbamate] | – | – | – | – | 4.82 to 103 | 4.82 to 103
7 | [2H]C([2H])([2H])C(OC(=O)N[C@@H]1C(=O)N2C[C@H](Oc3nn(CC)c(=O)c4ccccc34)C[C@H]2C(=O)N[C@]2(C(=O)NS(=O)(=O)C3CC3)C[C@H]2/C=C\CC[C@@H](C)C[C@H]1C)(C([2H])([2H])[2H])C(F)(F)F [Compound 5069] | 4.82 to 103 | 4.82 to 103 | 14.9 | 7.21 | – | –
8 | COCCOc1cnc(O[C@@H]2C[C@H]3C(=O)N[C@]4(C(=O)NS(=O)(=O)C5CC5)C[C@H]4/C=C\CC[C@@H](C)C[C@@H](C)[C@H](NC(=O)OC4C[C@@H]5C[C@H]5C4)C(=O)N3C2)c2ccccc12 [Compound 1040, (1S,5S)-bicyclo[3.1.0]hexan-3-yl((2R,6S,7R,9R,13aS,14aR,16aS,Z)-14a-((cyclopropylsulfonyl)carbamoyl)-2-((4-(2-methoxyethoxyl)isoquinolin-1-yl)oxy)-7,9-dimethyl-5,16-dioxo-1,2,3,5,6,7,8,9,10,11,13a,14,14a,15,16,16a-hexadecahydrocyclopropa[e]pyrrolo[1,2-a][1,4]diazacyclopentadecin-6-yl)carbamate] | – | – | – | – | < 5.46 | < 5.46
9 | CCC(CC)(OC(=O)N[C@@H]1C(=O)N2C[C@H](Oc3nccc4c5c(ccc34)OCCO5)C[C@H]2C(=O)N[C@]2(C(=O)NS(=O)(=O)C3CC3)C[C@H]2/C=C\CC[C@H](C)C[C@H]1C)C(F)(F)F [Compound 5261, 3-(trifluoromethyl)pentan-3-yl ((2R,6S,7R,9S,13aS,14aR,16aS,Z)-14a-((cyclopropylsulfonyl)carbamoyl)-2-((2,3-dihydro-[1,4]dioxino[2,3-f]isoquinolin-7-yl)oxy)-7,9-dimethyl-5,16-dioxo-1,2,3,5,6,7,8,9,10,11,13a,14,14a,15,16,16a-hexadecahydrocyclopropa[e]pyrrolo[1,2-a][1,4]diazacyclopentadecin-6-yl)carbamate] | 4.82 to 103 | < 5.46 | 14.3 | 2.18 | – | –
10 | COc1cc(F)cc2c(O[C@@H]3C[C@H]4C(=O)N[C@]5(C(=O)NS(=O)(=O)C6CC6)C[C@H]5/C=C\CC[C@H](C)C[C@@H](C)[C@H](NC(=O)OC(C)(C)C)C(=O)N4C3)nccc12 [Compound 3163, tert-butyl ((2R,6S,7R,9S,13aS,14aR,16aS,Z)-14a-((cyclopropylsulfonyl)carbamoyl)-2-((7-fluoro-5-methoxyisoquinolin-1-yl)oxy)-7,9-dimethyl-5,16-dioxo-1,2,3,5,6,7,8,9,10,11,13a,14,14a,15,16,16a-hexadecahydrocyclopropa[e]pyrrolo[1,2-a][1,4]diazacyclopentadecin-6-yl)carbamate] | – | – | – | – | 4.82 to 103 | 4.82 to 103
